# Data taken from PubChem BioAssay AID1963432 (Molecular Pharmacology Branch, DTP, NCI, 2024).
# pIC50: −log10 of the molar value.
# Tested on: SYO-1 complex spheroid growth, percent test/control
# Assay: Anticancer human tumor SYO-1 cell line growth inhibition [Asc];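 also: compound exposure lasted 7 days after spheroids grew 3 days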;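 as to viability, T/C: 100% = DMSO vehicle control viability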
# Settings: for pIC50: curve of first compound; for viability, T/C: stronger effect = lower value
# How it was run: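 Concentration series start at each agent's clinical Cmax, or at 10 microM when none is established, and drop in half-log steps; agents are applied alone or together to complex spheroids built with HUVEC and hMSC.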
smiles,measurement,setting,value
NC(=O)C(=Cn1cnc(-c2cc(C(F)(F)F)cc(C(F)(F)F)c2)n1)c1cncnc1 + CCN1C(C(=O)NC23CCC(C(=O)O)(CC2)CC3)C(c2cccc(Cl)c2F)C2(C(=O)Nc3cc(Cl)ccc32)C12CCCCC2,pIC50,second compound 0.00949 µM,6.78
same,pIC50,second compound 0.03 µM,6.87
same,pIC50,second compound 0.0949 µM,7.38
same,pIC50,second compound 0.3 µM,> 9.02
same,pIC50,second compound 0.949 µM,> 9.02
same,pIC50,second compound 3 µM,> 9.02
same,"viability, T/C","second compound 0.00949 µM, first compound 0.000949 µM",96.3%
same,"viability, T/C","second compound 0.00949 µM, first compound 0.003 µM",96.1%
same,"viability, T/C","second compound 0.00949 µM, first compound 0.00949 µM",99.3%
same,"viability, T/C","second compound 0.00949 µM, first compound 0.03 µM",87.8%
same,"viability, T/C","second compound 0.00949 µM, first compound 0.0949 µM",87.5%
same,"viability, T/C","second compound 0.00949 µM, first compound 0.3 µM",9.44%
same,"viability, T/C","second compound 0.03 µM, first compound 0.000949 µM",99.4%
same,"viability, T/C","second compound 0.03 µM, first compound 0.003 µM",94.6%
same,"viability, T/C","second compound 0.03 µM, first compound 0.00949 µM",90.1%
same,"viability, T/C","second compound 0.03 µM, first compound 0.03 µM",90.5%
same,"viability, T/C","second compound 0.03 µM, first compound 0.0949 µM",69.4%
same,"viability, T/C","second compound 0.03 µM, first compound 0.3 µM",5.52%
same,"viability, T/C","second compound 0.0949 µM, first compound 0.000949 µM",83.4%
same,"viability, T/C","second compound 0.0949 µM, first compound 0.003 µM",80.9%
same,"viability, T/C","second compound 0.0949 µM, first compound 0.00949 µM",76.6%
same,"viability, T/C","second compound 0.0949 µM, first compound 0.03 µM",64.6%
same,"viability, T/C","second compound 0.0949 µM, first compound 0.0949 µM",14.6%
same,"viability, T/C","second compound 0.0949 µM, first compound 0.3 µM",1.56%
same,"viability, T/C","second compound 0.3 µM, first compound 0.000949 µM",20.1%
same,"viability, T/C","second compound 0.3 µM, first compound 0.003 µM",21.6%
same,"viability, T/C","second compound 0.3 µM, first compound 0.00949 µM",12.9%
same,"viability, T/C","second compound 0.3 µM, first compound 0.03 µM",8.55%
same,"viability, T/C","second compound 0.3 µM, first compound 0.0949 µM",1.72%
same,"viability, T/C","second compound 0.3 µM, first compound 0.3 µM",0.32%
same,"viability, T/C","second compound 0.949 µM, first compound 0.000949 µM",2.25%
same,"viability, T/C","second compound 0.949 µM, first compound 0.003 µM",1.92%
same,"viability, T/C","second compound 0.949 µM, first compound 0.00949 µM",1.01%
same,"viability, T/C","second compound 0.949 µM, first compound 0.03 µM",0.78%
same,"viability, T/C","second compound 0.949 µM, first compound 0.0949 µM",0.55%
same,"viability, T/C","second compound 0.949 µM, first compound 0.3 µM",1.54%
same,"viability, T/C","second compound 3 µM, first compound 0.000949 µM",0.73%
same,"viability, T/C","second compound 3 µM, first compound 0.003 µM",1.1%
same,"viability, T/C","second compound 3 µM, first compound 0.00949 µM",0.93%
same,"viability, T/C","second compound 3 µM, first compound 0.03 µM",1.16%
same,"viability, T/C","second compound 3 µM, first compound 0.0949 µM",1.19%
same,"viability, T/C","second compound 3 µM, first compound 0.3 µM",2%
NC1CCC(NC2CC2c2ccccc2)CC1 (centres undefined) + CCN1C(C(=O)NC23CCC(C(=O)O)(CC2)CC3)C(c2cccc(Cl)c2F)C2(C(=O)Nc3cc(Cl)ccc32)C12CCCCC2,pIC50,second compound 0.00949 µM,< 7.00
same,pIC50,second compound 0.03 µM,< 7.00
same,pIC50,second compound 0.0949 µM,< 7.00
same,pIC50,second compound 0.3 µM,> 9.50
same,pIC50,second compound 0.949 µM,> 9.50
same,pIC50,second compound 3 µM,> 9.50
same,"viability, T/C","second compound 0.00949 µM, first compound 0.000316 µM",102%
same,"viability, T/C","second compound 0.00949 µM, first compound 0.001 µM",96.7%
same,"viability, T/C","second compound 0.00949 µM, first compound 0.00316 µM",88%
same,"viability, T/C","second compound 0.00949 µM, first compound 0.01 µM",88%
same,"viability, T/C","second compound 0.00949 µM, first compound 0.0316 µM",94.2%
same,"viability, T/C","second compound 0.00949 µM, first compound 0.1 µM",91.1%
same,"viability, T/C","second compound 0.03 µM, first compound 0.000316 µM",98%
same,"viability, T/C","second compound 0.03 µM, first compound 0.001 µM",96.8%
same,"viability, T/C","second compound 0.03 µM, first compound 0.00316 µM",88.9%
same,"viability, T/C","second compound 0.03 µM, first compound 0.01 µM",84.6%
same,"viability, T/C","second compound 0.03 µM, first compound 0.0316 µM",85.9%
same,"viability, T/C","second compound 0.03 µM, first compound 0.1 µM",89.5%
same,"viability, T/C","second compound 0.0949 µM, first compound 0.000316 µM",84.9%
same,"viability, T/C","second compound 0.0949 µM, first compound 0.001 µM",74.4%
same,"viability, T/C","second compound 0.0949 µM, first compound 0.00316 µM",57.8%
same,"viability, T/C","second compound 0.0949 µM, first compound 0.01 µM",53.4%
same,"viability, T/C","second compound 0.0949 µM, first compound 0.0316 µM",55.2%
same,"viability, T/C","second compound 0.0949 µM, first compound 0.1 µM",51.7%
same,"viability, T/C","second compound 0.3 µM, first compound 0.000316 µM",18.6%
same,"viability, T/C","second compound 0.3 µM, first compound 0.001 µM",18.2%
same,"viability, T/C","second compound 0.3 µM, first compound 0.00316 µM",6.03%
same,"viability, T/C","second compound 0.3 µM, first compound 0.01 µM",8.44%
same,"viability, T/C","second compound 0.3 µM, first compound 0.0316 µM",13.7%
same,"viability, T/C","second compound 0.3 µM, first compound 0.1 µM",11.2%
same,"viability, T/C","second compound 0.949 µM, first compound 0.000316 µM",1.71%
same,"viability, T/C","second compound 0.949 µM, first compound 0.001 µM",2.22%
same,"viability, T/C","second compound 0.949 µM, first compound 0.00316 µM",1.78%
same,"viability, T/C","second compound 0.949 µM, first compound 0.01 µM",1.87%
same,"viability, T/C","second compound 0.949 µM, first compound 0.0316 µM",1.95%
same,"viability, T/C","second compound 0.949 µM, first compound 0.1 µM",1.33%
same,"viability, T/C","second compound 3 µM, first compound 0.000316 µM",1.21%
same,"viability, T/C","second compound 3 µM, first compound 0.001 µM",1.53%
same,"viability, T/C","second compound 3 µM, first compound 0.00316 µM",2.09%
same,"viability, T/C","second compound 3 µM, first compound 0.01 µM",1.25%
same,"viability, T/C","second compound 3 µM, first compound 0.0316 µM",1.49%
same,"viability, T/C","second compound 3 µM, first compound 0.1 µM",1.44%
